Reference: patent US5935973A, “Heterocyclcarboxamide derivatives and their use as therapeutic agents” (Knoll Aktiengesellschaft, priority 1995, dated 1999)

What was measured:
D2 dopamine receptors = molecular target: T1, D2 dopamine receptors (Rattus norvegicus, UniProt P61169); experiment: inhibition of tritiated (S)-sulpiride binding to D2 dopamine receptors in rat striatal tissue; conditions: rat striatum; for Ki: tritiated (S)-sulpiride 1 nM, 4° C., 40 min; for inhibition at 1 µM: at 10^-6 M, tritiated (S)-sulpiride, read-out: % displacement of radio ligand, D2
T1 construct: Striatal tissue from the brains of male Charles River CD rats; from tissue; host or cells: rat striatum membranes
T1 sequence (P61169 whole entry): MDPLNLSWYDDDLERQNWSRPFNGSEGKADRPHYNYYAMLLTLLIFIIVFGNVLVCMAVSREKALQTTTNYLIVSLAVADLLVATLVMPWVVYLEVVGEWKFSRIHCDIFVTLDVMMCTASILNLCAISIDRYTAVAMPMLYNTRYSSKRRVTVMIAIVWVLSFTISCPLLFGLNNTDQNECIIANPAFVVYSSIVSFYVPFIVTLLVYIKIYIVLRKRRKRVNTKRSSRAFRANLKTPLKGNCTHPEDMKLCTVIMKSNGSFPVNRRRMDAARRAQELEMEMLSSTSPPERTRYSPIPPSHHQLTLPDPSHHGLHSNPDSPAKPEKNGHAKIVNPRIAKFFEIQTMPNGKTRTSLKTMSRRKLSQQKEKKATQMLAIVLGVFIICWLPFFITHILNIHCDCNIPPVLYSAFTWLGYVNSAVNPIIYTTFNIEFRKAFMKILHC
Procedure: Striatal tissue from the brains of male Charles River CD rats weighing between 140-250 g were homogenised in ice-cold 50 mM Tris-HCl buffer (pH 7.7 when measured at 25° C.) and centrifuged at 40,000 g for 10 minutes. The pellet was resuspended in Tris salts buffer (50 mM Tris-HCl buffer containing 120 mM NaCl, 5 mM KCl, 2 mM CaCl2 and 1 mM MgCl2 with the addition of 6 mM ascorbic acid; pH 7.7 when measured at 25° C.), and again centrifuged at 40,000 g for 10 minutes. The final pellet was stored at -80° C. Before each test the pellet was resuspended in Tris salts buffer (equivalent to 2 mg wet weight of tissue/ml). Aliquots (720 μl; equivalent to 1.44 mg wet weight of tissue/tube) of this suspension were then added to tubes containing the ligand (40 μl; 1 nM) and Tris salts buffer (40 μl; total binding) or spiroperidol (40 μl; 10 nM; non-specific binding) or test compound (40 μl; at a single concentration of 10^-6 M or at 6 concentrations ranging from 10^-11 -10^-4 M). The ligand was tritiated (S)-sulpiride and the mixture was incubated at 4° C. for 40 minutes before the incubation was terminated by rapid filtration.
The filters were washed with ice-cold Tris-HCl buffer and dried. The filters were punched out in to vials, scintillation fluid added and were left for about 20 hours before being counted by scintillation spectrophotometry. The percentage displacement of specific binding of the tritiated ligand was calculated for the single concentration (10^-6 M) of test compound. Displacement curves were then produced over a range of concentrations for those compounds which displaced ≥50% of specific binding of the tritiated ligand at 10^-6 M. The concentration which gave a 50% inhibition of specific binding (IC50) was obtained from the curve. The inhibition coefficient Ki was then calculated using the formula [formula] in [ligand] is the concentration of the tritiated ligand used and KD is the 2 equilibrium dissociation constant for the ligand.

α1-adrenoceptors = experiment: inhibition of [7-methoxy-3H]prazosin binding to α1-adrenoceptors in rat whole cortical tissue; conditions: rat whole cortex, 30 min; for Ki: [7-methoxy-3H]prazosin 0.1 nM, 30° C.; for % displacement of radio ligand, α1: at 10^-6 M, [7-methoxy-3H]prazosin, 1 µM
Procedure: Whole cortical tissue from the brains of male Charles River CD rats weighing between 150-250 g were homogenised in ice-cold 50 mM Tris-HCl, pH 7.6 (at 25° C.; 1:40 w/v) and centrifuged at 1000 g at 4° C. for 10 minutes. The supernatant was centrifuged at 30,000 g at 4° C. for 10 minutes. The pellet was rehomogenised in 50 mM Tris-HCl, pH 7.6 (1:40 w/v) and centrifuged at 30,000 g at 4° C. for 10 minutes. The final pellet was resuspended in 50 mM Tris-HCl, pH 7.6 (equivalent to 12.5 mg wet weight of tissue/ml) and used immediately in the binding assay. Aliquots (400 μl; equivalent to 5 mg wet weight of tissue/tube) of this suspension were added to tubes containing the ligand (50 μl; 0.1 nM) and distilled water (50 μl; total binding) or phentolamine (50 μl; 5 μM; non-specific binding) or test compound (50 μl; at a single concentration of 10^-6 M or at 10 concentrations ranging from 10^-11 -10^-3 M). The ligand was [7-methoxy-^3 H]prazosin and the mixture was incubated at 30° C. for 30 minutes before the incubation was terminated by rapid filtration.
(§1) The filters were washed with ice-cold Tris-HCl buffer and dried. The filters were punched out into vials, scintillation fluid added and radioactivity determined by liquid scintillation counting. The percentage displacement of specific binding of the tritiated ligand was calculated for the single concentration (10^-6 M) of test compound. Displacement curves were then produced for those compounds which displaced ≥50% of specific binding of the tritiated ligand at 10^-6 M using a range of concentrations of the compound. The concentration which gave 50% inhibition of specific binding (IC50) was obtained from the curve. The inhibition coefficient Ki was then calculated using the formula [formula] in which [ligand] is the concentration of the tritiated ligand used and KD is the equilibrium dissociation constant for the ligand.

5-HT1A receptors = molecular target: T2, 5-HT1A receptors (Rattus norvegicus, UniProt P19327); experiment: inhibition of [3H]8-OH-DPAT binding to 5-HT1A receptors in rat hippocampal tissue; conditions: rat hippocampus; for Ki: [3H]8-OH-DPAT 2 nM, 25° C., 30 min; for inhibition at 1 µM: at 10^-6 M, [3H]8-OH-DPAT, read-out: % displacement of radio ligand, 5-HT1A
T2 construct: Hippocampal tissue from the brains of male Sprague-Dawley rats; from tissue; host or cells: rat hippocampus membranes
T2 sequence (P19327 1-422): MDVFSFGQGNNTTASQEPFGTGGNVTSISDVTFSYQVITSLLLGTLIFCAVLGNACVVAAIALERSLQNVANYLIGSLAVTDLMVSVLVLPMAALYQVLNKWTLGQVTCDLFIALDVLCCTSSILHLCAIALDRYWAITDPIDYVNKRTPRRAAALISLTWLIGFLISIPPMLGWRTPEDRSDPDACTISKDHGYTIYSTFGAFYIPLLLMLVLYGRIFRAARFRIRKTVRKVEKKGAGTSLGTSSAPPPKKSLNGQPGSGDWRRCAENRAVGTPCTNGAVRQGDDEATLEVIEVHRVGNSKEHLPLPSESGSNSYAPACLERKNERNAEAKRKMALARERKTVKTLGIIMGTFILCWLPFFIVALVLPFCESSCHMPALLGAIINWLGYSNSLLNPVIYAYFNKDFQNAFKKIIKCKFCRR
Procedure: Hippocampal tissue from the brains of male Sprague-Dawley rats (Charles River; weight range 150-250 g) was homogenised in ice-cold 50 mM Tris-HCl buffer (pH 7.7 when measured at 25° C., 1:40 w/v) and centrifuged at 30,000 g at 4° C. for 10 minutes. The pellet was rehomogenised in the same buffer, incubated at 37° C. for 10 minutes and centrifuged at 30,000 g at 4° C. for 10 minutes. The final pellet was resuspended in 50 mM Tris-HCl buffer (pH 7.7) containing 4 mM CaCl2, 0.1% L-ascorbic acid and 10 μM pargyline hydrochloride (equivalent to 6.25 mg wet weight of tissue/ml) and used immediately in the binding assay. Aliquots (400 μl; equivalent to 2.5 mg wet weight of tissue/tube) of this suspension were added to tubes containing the ligand (50 μl; 2 nM) and distilled water (50 μl total binding) or 5-HT (50 μl; 10 μM; non-specific binding) or test compound (50 μl; at a single concentration of 10^-6 M or at 10 concentrations ranging from 10^-11 -10^-3 M). The ligand was [^3 H]8-hydroxy-2-(dipropylamino)tetralin ([^3 H]8-OH-DPAT) and the mixture was incubated at 25° C. for 30 minutes before the incubation was terminated by rapid filtration.
as §1

Compound | Ki (D2 dopamine receptors) [nM] | Ki (α1-adrenoceptors) [nM] | Ki (5-HT1A receptors) [nM] | inhibition at 1 µM (D2 dopamine receptors) [%] | % displacement of radio ligand, α1 (α1-adrenoceptors) [%] | inhibition at 1 µM (5-HT1A receptors) [%]
Nc1ncccc1C(=O)N1CCC(CNCC2COc3ccc(Cl)cc3O2)CC1 (racemic) [Example 19, 1-(2-aminonicotinoyl)-4-[N-(7-chloro-1,4-benzodioxan-2-ylmethyl)aminomethyl]piperidine] | 11.4 | 49 | 30 | – | – | –
Nc1ncccc1C(=O)NCC1CCN(C[C@H]2COc3ccc(Br)cc3O2)CC1 [Example 21, (S)-2-amino-N-{[1-(7-bromo-1,4-benzodioxan-2-ylmethyl)-4-piperidyl]methyl}pyridine-3-carboxamide] | 18 | 99 | 35 | – | – | –
O=C(NCC1CCN(C[C@H]2COc3cccc(Cl)c3O2)CC1)c1cccnc1 [Example 24, (S)-N-{[1-(8-chloro-1,4-benzodioxan-2-ylmethyl)-4-piperidyl]methyl}pyridine-3-carboxamide] | 16 | 9 | 34 | – | – | –
Cc1cccc(C(=O)NCC2CCN(C[C@H]3COc4ccc(Cl)cc4O3)CC2)n1 [Example 25, (S)-N-{[1-(7-chloro-1,4-benzodioxan-2-ylmethyl)-4-piperidyl]methyl}-6-methylpyridine-2-carboxamide] | 33 | 233 | 47 | – | – | –
COc1ncccc1C(=O)NCC1CCN(C[C@H]2COc3ccc(Cl)cc3O2)CC1 [Example 26, (S)-N-{[1-(7-chloro-1,4-benzodioxan-2-ylmethyl)-4-piperidyl]methyl}-2-methoxypyridine-3-carboxamide] | 43 | 130 | 7 | – | – | –
Nc1ncccc1C(=O)NCC1CCN(C[C@H]2COc3ccc(F)c(F)c3O2)CC1 [Example 27, (S)-2-amino-N-{[1-(7,8-difluoro-1,4-benzodioxan-2-ylmethyl)4-piperidyl]methyl}pyridine-3-carboxamide] | – | – | – | 99.9 | 68 | 90
Nc1ncccc1C(=O)NCC1CCN(C[C@H]2COc3cccc(OS(=O)(=O)C(F)(F)F)c3O2)CC1 [Example 28, (S)-2-amino-N-{[1-(8-trifluoromethanesulphonyloxy-1,4-benzodioxan-2-ylmethyl)-4-piperidyl]methyl}pyridine-3-carboxamide] | – | – | – | 101 | 98 | 96

Continued, values first:

Ki (D2 dopamine receptors) [nM] | Ki (α1-adrenoceptors) [nM] | Ki (5-HT1A receptors) [nM] | inhibition at 1 µM (D2 dopamine receptors) [%] | % displacement of radio ligand, α1 (α1-adrenoceptors) [%] | inhibition at 1 µM (5-HT1A receptors) [%] | Compound
– | – | – | – | 85 | 95 | O=C(c1ccccn1)N1CCC(CNC[C@H]2COc3ccc(Cl)cc3O2)CC1 [Example 29, 4-[N-(7-chloro-1,4-benzodioxan-2-ylmethyl)aminomethyl]-1-(2-pyridylcarbonyl)piperidine]
– | – | – | 85 | 61 | 78 | Cc1ccc2c(c1)O[C@@H](CN1CCC(CNC(=O)c3cccnc3)CC1)CO2 [Example 30, (S)-N-{[1-(7-methyl-1,4-benzodioxan-2-ylmethyl)-4-piperidyl]methyl}pyridine-3-carboxamide]
– | – | – | 68 | 41 | 63 | Cc1ccc2c(c1)O[C@@H](CN1CCC(CNC(=O)c3cccnc3C)CC1)CO2 [Example 31, (S)-2-methyl-N-{[1-(7-methyl-1,4-benzodioxan-2-ylmethyl)-4-piperidyl]-methyl}pyridine-3-carboxamide]
– | – | – | 80 | 71 | 92 | Cc1ccc2c(c1)O[C@@H](CN1CCC(CNC(=O)c3ccc(-n4cccc4)nc3)CC1)CO2 [Example 32, (S)-N-{[1-(7-methyl-1,4-benzodioxan-2-ylmethyl)-4-piperidyl]methyl}-6-(1-pyrrolyl)pyridine-3-carboxamide]
– | – | – | 81 | 41 | 81 | CSc1ncccc1C(=O)NCC1CCN(C[C@H]2COc3ccc(C)cc3O2)CC1 [Example 33, (S)-N-{[1-(7-methyl-1,4-benzodioxan-2-ylmethyl)-4-piperidyl]methyl}-2-(methylthio)pyridine-3-carboxamide]
– | – | – | 86 | 68 | 87 | Cc1ccc2c(c1)O[C@@H](CN1CCC(CNC(=O)c3cncc(Br)c3)CC1)CO2 [Example 34, (S)-5-bromo-N-{[1-(7-methyl-1,4-benzodioxan-2-ylmethyl)-4-piperidyl]-methyl}pyridine-3-carboxamide]
– | – | – | 101 | 73 | 95 | O=C(NCC1CCN(C[C@H]2COc3ccc(Br)cc3O2)CC1)c1cccnc1 [Example 35, (S)-N-{[1-(7-bromo-1,4-benzodioxan-2-ylmethyl)-4-piperidyl]methyl}pyridine-3-carboxamide]
– | – | – | 98 | 54 | 80 | Cc1ncccc1C(=O)NCC1CCN(C[C@H]2COc3ccc(Br)cc3O2)CC1 [Example 36, (S)-N-{[1-(7-bromo-1,4-benzodioxan-2-ylmethyl)-4-piperidyl]methyl}-2-methylpyridine-3-carboxamide]
– | – | – | 97 | 66 | 85 | O=C(NCC1CCN(C[C@H]2COc3ccc(Br)cc3O2)CC1)c1ccc(-n2cccc2)nc1 [Example 37, (S)-N-{[1-(7-bromo-1,4-benzodioxan-2-ylmethyl)-4-piperidyl]methyl}-6-(1-pyrrolyl)pyridine-3-carboxamide]
